Key:
babA1A2-mutant = assay: Scatchard affinity analysis with sialylated conjugates; format: binding, Helicobacter pylori
From the text: The sialyl-alfa2.3lactose-, sialyl-alfa2.61actose-, sialyl-Lewis a-, and Lewis b-oligosaccharide antigens used for neoglycoconjugate preparations were purified by HPLC, structurally identified and characterized with NMR-spectroscopy, and more than 95% pure. These conjugates were attached to albumin with an APD (acetylphenylenediamine) spacer attached to the carbohydrate by reductive animation and thus the terminal reducing monosaccharide unit of the oligosaccharide is reduced and is present as an aminoalditol, IsoSep AB, Tullinge, Sweden (T. Borén, P. Falk, K. A. Roth, G. Larson, and S. Normark, Science. 262, 1892 (1993), P. D. Rye, Nature Biotechnology 2, 155 (1996)). The synthesised sialyl-Lewis x- tetrasaccharide antigen was conjugated to albumin with the MPE (mercaptopropionyl-amidoethyl) -spacer, IsoSep AB. Synthesised sialyl-Lewis x-tetrasaccharide and sialyl-acetyllactosaminee, both with a either a 3 carbon or 14 carbon (extended/hydrophilic) spacer, conjugated to albumin, were obtained from Dextra Laboratories, Reading, UK. The RIA (Fig. 4) was performed according to (P. Falk, T. Borén, D. Haslam, M. G. Caparon, Meth. Cell Biol. 45, 161 (1994)) with minor modifications; the glycoconjugates were ^125I-labelled by the Chloramine T method. […] After centrifugation, the ^125I-activity bound to the bacterial pellet was measured by gamma scintillation counting. […]

H. pylori strains = assay: radio immuno analysis (RIA) with 125I-labelled neoglycoconjugates; format: binding, Helicobacter pylori; settings: strains of Fig. 4 (BabA2 mutant, babA1A2 mutant, CCUG 17875, CCUG 17874), 400 ng conjugate, 30 min
Description: Bars, from the left to the right; The sialyl-alfa2.61actose-, sialyl-alfa2.31actose-, sialyl-Lewis a-, sialyl-Lewis x-, and Lewis b-, synthesised sialyl-Lewis x- sialyl-acetyllactosaminee, both with a either a 3 carbon or 14 carbon (extended/hydrophilic) spacer, conjugated to albumin, Finally, the histo-blood group antigen Lewis y (synthesised penta-saccharide) (V. Behar and S.J. Danishefsky, Angew. Chem. Int. Ed. Engi, 1994, 33, no. 14, 1468.), was analysed as a neo-glycoconjugate.
The sialyl-alfa2.3lactose-, sialyl-alfa2.61actose-, sialyl-Lewis a-, and Lewis b-oligosaccharide antigens used for neoglycoconjugate preparations were purified by HPLC, structurally identified and characterized with NMR-spectroscopy, and more than 95% pure. These conjugates were attached to albumin with an APD (acetylphenylenediamine) spacer attached to the carbohydrate by reductive animation and thus the terminal reducing monosaccharide unit of the oligosaccharide is reduced and is present as an aminoalditol, IsoSep AB, Tullinge, Sweden (T. Borén, P. Falk, K. A. Roth, G. Larson, and S. Normark, Science. 262, 1892 (1993), P. D. Rye, Nature Biotechnology 2, 155 (1996)). The synthesised sialyl-Lewis x- tetrasaccharide antigen was conjugated to albumin with the MPE (mercaptopropionyl-amidoethyl) -spacer, IsoSep AB. Synthesised sialyl-Lewis x-tetrasaccharide and sialyl-acetyllactosaminee, both with a either a 3 carbon or 14 carbon (extended/hydrophilic) spacer, conjugated to albumin, were obtained from Dextra Laboratories, Reading, UK. The RIA (Fig. 4) was performed according to (P. Falk, T. Borén, D. Haslam, M. G. Caparon, Meth. Cell Biol. 45, 161 (1994)) with minor modifications; the glycoconjugates were ^125I-labelled by the Chloramine T method. 1 ml of bacteria (A600= OD 0.10) was incubated with 400 ng of ^125I-labelled conjugate (that is an excess of receptor substrate) for 30 min. in phosphate buffered saline (PBS), 0.5 % albumin, 0.05 % Tween-20 (BB-buffer). After centrifugation, the ^125I-activity bound to the bacterial pellet was measured by gamma scintillation counting. Binding experiments were reproducible and performed in triplets. In addition, the level of binding-activity within the strain was stabile.

[1] = system: strain CCUG 17874, the BabA2 mutant and the BabA1A2 mutant; assay: thin-layer chromatogram binding assay (radiolabelled bacteria overlaid on separated glycosphingolipids); design: species or system Helicobacter pylori; settings: for binding to glycosphingolipids on thin-layer chromatograms (in words): CCUG 17874, babA2 mutant, babA1A2 mutant; for Binding obtained with strain CCUG 17874, the babA2 mutant and the babA1A2 mutant: glycosphingolipids on thin-layer chromatograms, autoradiogram
Description: (§1) The glycosphingolipids were separated and (A) visualised with anisaldehyde. Duplicate chromatograms were incubated with monoclonal (B) anti-sialyl-Lewis x, (C) anti-sialyl-Lewis a, and radiolabelled H. pylori (D) strain CCUG 17875, (E) the BabA1A2 mutant strain, and (F) strain CCUG 17874. Autoradiography was for 12 hr. The lanes contained: 1, Acid glycosphingolipids of calf brain, 40 µg; 2, Acid glycosphingolipids of human neutrophil granulocytes, 40 µg; 3, Acid glycosphingolipids of human neutrophil granulocytes after de-sialylation, 40 µg; 4, Acid glycosphingolipids of human gall bladder adenocarcinoma, 40 µg; 5, Acid glycosphingolipids of human gall bladder adenocarcinoma after de-sialylation, 40 µg; 6, NeuAcα3Galβ4(Fucα3)GlcNAcβ3Galβ4(Fucα3)GlcNAcβ3Galβ4Glcβ1Cer isolated from human gall bladder adenocarcinoma, 1 µg; 7, NeuAcα3Galβ3(Fucα4)GlcNAcβ3Galβ4Glcβ1-Cer (sialyl-Lewis a hexaglycosylceramide) isolated from human gall bladder adenocarcinoma, 4 µg; 8, NeuAcα3Galβ4(Fucα3)GlcNAcβ3Galβ4Glcβ1Cer (sialyl-Lewis x hexaglycosyl-ceramide), 4 µg; 9, Fucα2Galβ3(Fucα4)GlcNAcβ3Galβ4Glcβ1Cer (Lewis b-6 hexaglycosylceramide) of human small intestine, 4 µg.
(§2) Culture and ^35S-labelling of H. pylori was as outlined in (Ångström, J., Teneberg, S., Abul Milh, M,. Larsson, T., Leonardsson, I., Olsson, B.-M., Ölwegård Halvarsson, M., Danielsson, D., and Karlsson, K.-A. (1998). The lactosylceramide binding specificity of Helicobacter pylori. Glycobiology 8, 297-309.). Mixtures of glycosphingolipids (20-40 µg/lane) or pure compounds (0.002-4 µg/lane) were separated on aluminium-backed silica gel 60 HPTLC plates (Merck), using chloroform:methanol:water 60:35:8 (v/v/v) as solvent system. Chemical detection was done with anisaldehyde (Waldi, D. (1962) Sprühreagentien für die dünnschicht-chromatographie. In Dünnschicht-Chromatographie, E. Stahl ed. (Berlin: Springer-Verlag) pp. 496-51).
(§3) Binding of radiolabelled H. pylori to glycosphingolipids on thin-layer chromatograms was performed as described above (Ångström et al., 1998) using suspensions of bacteria diluted in phosphate-buffered saline (PBS), pH 7.3, to 1x10^8 CFU/ml. The specific activities of the suspensions were approximately 1 CPM per 100 H. pylori organisms. Binding of monoclonal antibodies was done as described (Magnani, J.L., Brockhaus, M., Smith, D.F., Ginsburg, V., Blaszczyk, M., Mitchell, K.F., Steplewski, Z., and Koprowski, H. (1981). A monosialoganglioside is a monoclonal antibody-defined antigen of colon-carcinoma. Science 212, 55-56). Anti-sialyl-Lewis x monoclonal antibodies (clone KM-93) were from Seikagaku Corp., Tokyo, Japan and anti-sialyl-Lewis a monoclonal antibodies (CA 19-9) from Signet Laboratories, Inc., Dedham, MA 02026, USA.
(§4) Screening of potential receptor structures unique for thebabA1/babA2-mutant was performed by adherence experiments to well-defined panels of MS-characterized glycolipids, from defined and unique sources and tissues. Binding of H. pylori and monoclonal antibodies to glycosphingo-lipids was evaluated using the thin-layer chromatogram binding assay (J. Ångström et al., Glycobiology 8, 297 (1998); J. M. McKibbin et al., J. Biol. Chem. 257,755 (1982)), i.e., glyco-lipids were separated on HPTLC-plates, and H. pylori CCUG 17875 wild type bacteria and the babA1/babA2-mutant were overlaid on the plates and binding of radio labelled bacterial cells was detected. (See Experimental procedures).

[2] = system: Helicobacter pylori strain CCUG 17875; assay: as above; settings: glycosphingolipids on thin-layer chromatograms, autoradiogram
Description: as §1, §2, §3, §4

Compound	binding of 125I-labelled neoglycoconjugate (in words) (H. pylori strains)	Binding obtained with strain CCUG 17874, the babA2 mutant and the babA1A2 mutant ([1]; Table 1)	Binding obtained with strain CCUG 17874, the babA2 mutant and the babA1A2 mutant ([1]; Table 2)	Binding obtained with strain CCUG 17875 ([2]; Table 1)	Binding obtained with strain CCUG 17875 ([2]; Table 2)	further results
CC(=O)N[C@H]1[C@H]([C@H](O)[C@H](O)CO)O[C@@](O[C@H]2[C@@H](O)[C@@H](CO)O[C@@H](O[C@H]3[C@H](O)[C@@H](O)C(O)O[C@@H]3CO)[C@@H]2O)(C(=O)O)C[C@@H]1O (some centres unmarked) [sialyl-alfa2.31actose antigen, Neu5Acα3Galβ4Glc]	Poor binding	–	–	–	–	fold lower affinity (babA1A2-mutant; compared with the fucosylated sialyl-Lewis x structures): 20 fold; Kd (babA1A2-mutant; read-out: affinity according to Scatchard): 0.1 µM
CC(=O)NC1C(O)CC(OCC2OC(OC3C(CO)OC(O)C(O)C3O)C(O)C(O)C2O)(C(=O)O)OC1C(O)C(O)CO (centres unmarked) [sialyl-alfa2.61actose antigen, Neu5Acα6Galβ4Glc]	Poor binding	–	–	–	–	binding of 125I-labelled neoglycoconjugate (in words) (H. pylori strains; listed as sialyl-alfa 2,6 lactose conjugate): did not demonstrate any binding activity
Fucα2Galβ3(Fucα4)GlcNAcβ3Galβ4Glcβ1Cer [Le^b-6]	–	- (- denotes no darkening even at 2 nmol)	- (– denotes no darkening even at 2 nmol)	+^3 (+ denotes a darkening at 2 nmol)	+3 (+3 denotes a significant darkening on the autoradiogram when 1 pmol of structure was applied on the thin-layer plate)	binding to glycosphingolipids on thin-layer chromatograms (in words) [1]: did not recognize
Galβ3GalNAcβ4(NeuAcα3)Galβ4Glcβ1Cer [GM1]	–	- (- denotes no darkening even at 2 nmol)	- (– denotes no darkening even at 2 nmol)	- (- denotes no darkening even at 2 nmol)	- (– denotes no darkening even at 2 nmol)	–
Galβ3GalNAcβ4(NeuAcα8NeuAcα3)Galβ4Glcβ1Cer [GD1b]	–	- (- denotes no darkening even at 2 nmol)	- (– denotes no darkening even at 2 nmol)	- (- denotes no darkening even at 2 nmol)	- (– denotes no darkening even at 2 nmol)	–
Neu5Acα3Galβ4GlcNAc [alfa2.31actoseamine with a 14 carbon spacer]	rather efficient binding	–	–	–	–	–
Neu5Acα3Galβ4GlcNAc [equivalent structure linked by a shorter, 3 carbon spacer]	much reduced in binding	–	–	–	–	–
NeuAcα3Galβ3(Fucα4)GlcNAcβ3Galβ4Glcβ1Cer [S-Le^a]	–	–	- (– denotes no darkening even at 2 nmol)	–	- (– denotes no darkening even at 2 nmol)	binding to glycosphingolipids on thin-layer chromatograms (in words) [1]: almost no binding
NeuAcα3Galβ3GalNAcβ4(NeuAcα3)Galβ4Glcβ1Cer [GD1a]	–	- (- denotes no darkening even at 2 nmol)	- (– denotes no darkening even at 2 nmol)	- (- denotes no darkening even at 2 nmol)	- (– denotes no darkening even at 2 nmol)	–
NeuAcα3Galβ4(Fucα3)GlcNAcβ3Galβ4(Fucα3)GlcNAcβ3Galβ4Glcβ1Cer	–	+++ (+++ denotes a significant darkening on the autoradiogram when 1 pmol was applied on the thin-layer plate)	+3 (+3 denotes a significant darkening on the autoradiogram when 1 pmol of structure was applied on the thin-layer plate)	- (- denotes no darkening even at 2 nmol)	- (– denotes no darkening even at 2 nmol)	detection level ([1]; binding on thin-layer chromatogram): approximately 1 pmol
NeuAcα3Galβ4(Fucα3)GlcNAcβ3Galβ4Glcβ1Cer [S-Le^x]	–	–	–	–	–	binding to glycosphingolipids on thin-layer chromatograms (in words) [1]: weak binding; amount required for binding ([1]; weak, occasionally observed binding on thin-layer chromatogram): 2 nmol
NeuAcα3Galβ4Glcβ1Cer [GM3]	–	- (- denotes no darkening even at 2 nmol)	- (– denotes no darkening even at 2 nmol)	- (- denotes no darkening even at 2 nmol)	- (– denotes no darkening even at 2 nmol)	–

— patent EP1169044B1, “USE OF FUCOSYLATED SIALYLATED N-ACETYL LACTOSAMINE CARBOHYDRATE STRUCTURES FOR INHIBITION OF BACTERIAL ADHERENCE” (Borén, Thomas, priority 1999, dated 2000)
